# Test results as given in ChEMBL document CHEMBL4800722, “Data for DCP probe BI 605906” (2021).
# Assays:
# [1] = biological target: T1, Sodium-dependent dopamine transporter (Homo sapiens, UniProt Q01959); experiment: GPCRScan assay: inhibition of DAT; design: radioligand conc. used [nm] 3.6 – 16.0, parental cells stable HEK
# [2] = biological target: Inhibitor of nuclear factor kappa-B kinase subunit beta (Homo sapiens, UniProt O14920); experiment: Biochemical assay
# [3] = biological target: 5-hydroxytryptamine receptor 1A (Homo sapiens) (UniProt P08908); conditions: Compound concentration 10.0 uM
# [4] = biological target: 5-hydroxytryptamine receptor 1D (Homo sapiens) (UniProt P28221); conditions: Compound concentration 10.0 uM
# [5] = biological target: 5-hydroxytryptamine receptor 1E (Homo sapiens) (UniProt P28566); conditions: Compound concentration 10.0 uM
# [6] = biological target: 5-hydroxytryptamine receptor 2A (Homo sapiens) (UniProt P28223); conditions: Compound concentration 10.0 uM
# [7] = biological target: 5-hydroxytryptamine receptor 2B (Homo sapiens) (UniProt P41595); conditions: Compound concentration 10.0 uM
# 5-hydroxytryptamine receptor 2B (Homo sapiens), sequence (P41595 whole entry): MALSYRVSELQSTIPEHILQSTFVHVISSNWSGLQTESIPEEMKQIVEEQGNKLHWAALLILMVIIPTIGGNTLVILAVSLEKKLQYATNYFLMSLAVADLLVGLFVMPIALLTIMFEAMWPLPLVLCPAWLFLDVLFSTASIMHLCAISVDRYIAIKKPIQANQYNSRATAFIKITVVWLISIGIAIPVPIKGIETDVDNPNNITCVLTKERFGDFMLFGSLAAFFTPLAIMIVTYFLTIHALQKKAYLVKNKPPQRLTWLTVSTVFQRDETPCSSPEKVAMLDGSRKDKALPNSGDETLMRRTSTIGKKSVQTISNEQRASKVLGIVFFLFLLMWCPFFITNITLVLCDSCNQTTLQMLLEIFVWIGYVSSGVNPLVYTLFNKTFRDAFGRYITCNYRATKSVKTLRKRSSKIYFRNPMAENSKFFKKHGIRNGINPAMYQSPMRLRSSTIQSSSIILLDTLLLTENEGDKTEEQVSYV
# [8] = biological target: 5-hydroxytryptamine receptor 2C (Homo sapiens) (UniProt P28335); conditions: Compound concentration 10.0 uM
# 5-hydroxytryptamine receptor 2C (Homo sapiens), sequence (P28335 whole entry): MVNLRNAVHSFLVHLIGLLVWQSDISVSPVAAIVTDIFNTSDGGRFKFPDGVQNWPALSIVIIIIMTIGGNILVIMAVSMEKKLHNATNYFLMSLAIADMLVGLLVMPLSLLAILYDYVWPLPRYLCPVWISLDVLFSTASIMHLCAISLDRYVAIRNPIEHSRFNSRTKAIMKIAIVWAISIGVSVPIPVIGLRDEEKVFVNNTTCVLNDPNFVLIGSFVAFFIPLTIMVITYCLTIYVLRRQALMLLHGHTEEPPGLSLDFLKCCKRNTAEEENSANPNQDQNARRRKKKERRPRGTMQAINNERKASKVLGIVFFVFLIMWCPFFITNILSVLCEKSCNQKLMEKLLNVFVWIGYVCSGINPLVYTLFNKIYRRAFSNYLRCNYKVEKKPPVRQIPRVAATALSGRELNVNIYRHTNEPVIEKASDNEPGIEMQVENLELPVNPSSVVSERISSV
# [9] = biological target: 5-hydroxytryptamine receptor 3A (Homo sapiens) (UniProt P46098); conditions: Compound concentration 10.0 uM
# 5-hydroxytryptamine receptor 3A (Homo sapiens), sequence (P46098 whole entry): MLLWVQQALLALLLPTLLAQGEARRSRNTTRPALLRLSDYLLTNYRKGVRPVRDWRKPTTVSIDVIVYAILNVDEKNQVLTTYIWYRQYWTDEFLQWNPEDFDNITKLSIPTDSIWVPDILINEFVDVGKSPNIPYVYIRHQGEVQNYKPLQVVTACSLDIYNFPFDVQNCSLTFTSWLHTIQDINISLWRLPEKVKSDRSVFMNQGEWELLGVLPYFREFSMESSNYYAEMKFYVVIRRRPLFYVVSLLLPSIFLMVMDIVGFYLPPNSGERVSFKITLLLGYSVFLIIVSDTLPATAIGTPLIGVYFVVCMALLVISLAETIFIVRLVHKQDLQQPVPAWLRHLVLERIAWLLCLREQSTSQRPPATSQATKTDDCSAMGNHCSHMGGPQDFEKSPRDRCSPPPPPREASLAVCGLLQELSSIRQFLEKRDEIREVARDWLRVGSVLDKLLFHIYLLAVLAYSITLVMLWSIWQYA
# [10] = biological target: 5-hydroxytryptamine receptor 5A (Homo sapiens) (UniProt P47898); conditions: Compound concentration 10.0 uM
# 5-hydroxytryptamine receptor 5A (Homo sapiens), sequence (P47898 whole entry): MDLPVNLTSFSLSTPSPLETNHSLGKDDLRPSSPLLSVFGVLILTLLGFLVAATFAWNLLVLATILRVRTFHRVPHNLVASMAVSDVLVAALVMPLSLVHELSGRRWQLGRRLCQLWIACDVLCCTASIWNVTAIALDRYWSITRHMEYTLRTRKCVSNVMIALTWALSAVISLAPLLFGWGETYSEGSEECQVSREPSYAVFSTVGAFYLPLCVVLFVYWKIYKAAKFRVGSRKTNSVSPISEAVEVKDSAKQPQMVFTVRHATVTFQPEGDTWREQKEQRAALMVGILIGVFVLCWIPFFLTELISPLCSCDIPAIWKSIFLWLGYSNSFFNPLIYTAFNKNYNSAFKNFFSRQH
# [11] = biological target: 5-hydroxytryptamine receptor 6 (Homo sapiens) (UniProt P50406); conditions: Compound concentration 10.0 uM
# 5-hydroxytryptamine receptor 6 (Homo sapiens), sequence (P50406 whole entry): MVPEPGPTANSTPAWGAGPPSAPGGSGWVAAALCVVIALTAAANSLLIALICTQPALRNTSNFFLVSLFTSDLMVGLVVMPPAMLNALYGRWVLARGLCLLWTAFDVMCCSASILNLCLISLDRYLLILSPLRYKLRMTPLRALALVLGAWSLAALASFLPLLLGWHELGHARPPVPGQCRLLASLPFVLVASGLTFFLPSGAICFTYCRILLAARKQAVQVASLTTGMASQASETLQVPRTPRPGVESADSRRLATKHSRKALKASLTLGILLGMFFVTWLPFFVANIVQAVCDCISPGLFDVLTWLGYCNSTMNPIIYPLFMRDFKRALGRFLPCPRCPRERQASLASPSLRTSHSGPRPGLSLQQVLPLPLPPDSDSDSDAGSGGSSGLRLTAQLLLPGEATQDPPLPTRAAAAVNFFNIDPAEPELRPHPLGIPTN
# [12] = biological target: 5-hydroxytryptamine receptor 7 (Homo sapiens) (UniProt P34969); conditions: Compound concentration 10.0 uM
# [13] = biological target: D(1A) dopamine receptor (Homo sapiens) (UniProt P21728); conditions: Compound concentration 10.0 uM
# [14] = biological target: D(2) dopamine receptor (Homo sapiens) (UniProt P14416); conditions: Compound concentration 10.0 uM
# D(2) dopamine receptor (Homo sapiens), sequence (P14416 whole entry): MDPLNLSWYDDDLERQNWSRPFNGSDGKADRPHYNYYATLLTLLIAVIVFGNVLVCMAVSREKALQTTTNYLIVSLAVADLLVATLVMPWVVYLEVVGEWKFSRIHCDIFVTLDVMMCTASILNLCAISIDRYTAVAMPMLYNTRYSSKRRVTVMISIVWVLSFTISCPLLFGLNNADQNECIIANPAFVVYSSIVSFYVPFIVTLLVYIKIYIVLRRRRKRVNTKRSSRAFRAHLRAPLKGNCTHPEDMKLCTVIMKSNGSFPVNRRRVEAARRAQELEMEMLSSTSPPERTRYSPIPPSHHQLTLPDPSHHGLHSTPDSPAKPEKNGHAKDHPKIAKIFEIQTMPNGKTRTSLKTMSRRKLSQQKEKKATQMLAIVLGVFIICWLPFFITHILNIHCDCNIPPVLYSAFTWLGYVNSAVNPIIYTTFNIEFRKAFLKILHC
# [15] = biological target: T2, D(4) dopamine receptor (Homo sapiens) (UniProt P21917); conditions: Compound concentration 10.0 uM
# T2 sequence (whole entry): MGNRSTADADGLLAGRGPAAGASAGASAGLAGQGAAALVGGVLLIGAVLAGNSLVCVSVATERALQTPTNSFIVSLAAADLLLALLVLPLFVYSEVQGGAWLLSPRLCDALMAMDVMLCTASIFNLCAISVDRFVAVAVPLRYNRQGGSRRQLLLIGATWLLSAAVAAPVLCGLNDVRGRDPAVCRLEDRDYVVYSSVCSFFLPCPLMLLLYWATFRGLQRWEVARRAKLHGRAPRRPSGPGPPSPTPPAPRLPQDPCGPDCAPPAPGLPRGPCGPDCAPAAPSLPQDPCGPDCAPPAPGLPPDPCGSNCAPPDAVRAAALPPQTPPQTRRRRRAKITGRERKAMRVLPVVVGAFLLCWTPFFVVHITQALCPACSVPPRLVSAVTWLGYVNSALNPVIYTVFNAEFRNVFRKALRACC
# [16] = biological target: Sodium-dependent serotonin transporter (Homo sapiens) (UniProt P31645); conditions: Compound concentration 10.0 uM
# [17] = biological target: Sodium-dependent noradrenaline transporter (Homo sapiens) (UniProt P23975); conditions: Compound concentration 10.0 uM
# [18] = biological target: T1, Sodium-dependent dopamine transporter; conditions: Compound concentration 10.0 uM
# [19] = biological target: Mu-type opioid receptor (Homo sapiens) (UniProt P35372); conditions: Compound concentration 10.0 uM
# [20] = biological target: Delta-type opioid receptor (Homo sapiens) (UniProt P41143); conditions: Compound concentration 10.0 uM
# [21] = biological target: Kappa-type opioid receptor (Homo sapiens) (UniProt P41145); conditions: Compound concentration 10.0 uM
# Kappa-type opioid receptor (Homo sapiens), sequence (P41145 whole entry): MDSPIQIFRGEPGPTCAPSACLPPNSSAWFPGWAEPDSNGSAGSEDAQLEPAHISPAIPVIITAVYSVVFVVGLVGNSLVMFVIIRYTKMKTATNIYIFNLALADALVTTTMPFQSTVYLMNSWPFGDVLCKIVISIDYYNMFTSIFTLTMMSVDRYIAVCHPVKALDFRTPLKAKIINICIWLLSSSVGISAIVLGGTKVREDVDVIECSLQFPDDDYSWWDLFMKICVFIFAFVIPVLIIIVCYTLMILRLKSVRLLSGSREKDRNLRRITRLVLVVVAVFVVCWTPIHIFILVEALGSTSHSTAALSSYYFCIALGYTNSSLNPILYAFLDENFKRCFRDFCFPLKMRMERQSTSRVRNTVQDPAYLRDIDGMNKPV
# [22] = biological target: T3, GABA-A receptor; anion channel (Rattus norvegicus) (UniProt O09028+P15431+P18506+P18508+P19969+P20236+P23574+P23576+P28471+P28473+P30191+P62813+P63079+P63138+Q91ZM7+Q9ES14); conditions: Compound concentration 10.0 uM
# [23] = biological target: Histamine H1 receptor (Homo sapiens) (UniProt P35367); conditions: Compound concentration 10.0 uM
# [24] = biological target: Histamine H2 receptor (Homo sapiens) (UniProt P25021); conditions: Compound concentration 10.0 uM
# Histamine H2 receptor (Homo sapiens), sequence (P25021 whole entry): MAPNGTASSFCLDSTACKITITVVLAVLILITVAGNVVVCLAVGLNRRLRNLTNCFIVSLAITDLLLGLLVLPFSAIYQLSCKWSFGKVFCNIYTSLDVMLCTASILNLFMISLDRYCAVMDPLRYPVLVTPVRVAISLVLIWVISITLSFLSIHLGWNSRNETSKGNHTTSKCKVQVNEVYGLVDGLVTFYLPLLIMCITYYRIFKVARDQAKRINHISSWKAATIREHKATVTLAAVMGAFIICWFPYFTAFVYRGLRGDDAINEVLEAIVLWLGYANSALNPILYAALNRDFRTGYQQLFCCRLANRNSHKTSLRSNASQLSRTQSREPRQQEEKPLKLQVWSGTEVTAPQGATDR
# [25] = biological target: Histamine H3 receptor (Homo sapiens) (UniProt Q9Y5N1); conditions: Compound concentration 10.0 uM
# [26] = biological target: Alpha-1A adrenergic receptor (Homo sapiens) (UniProt P35348); conditions: Compound concentration 10.0 uM
# [27] = biological target: Alpha-1B adrenergic receptor (Homo sapiens) (UniProt P35368); conditions: Compound concentration 10.0 uM
# [28] = biological target: Alpha-2A adrenergic receptor (Homo sapiens) (UniProt P08913); conditions: Compound concentration 10.0 uM
# [29] = biological target: Alpha-2B adrenergic receptor (Homo sapiens) (UniProt P18089); conditions: Compound concentration 10.0 uM
# Alpha-2B adrenergic receptor (Homo sapiens), sequence (P18089 whole entry): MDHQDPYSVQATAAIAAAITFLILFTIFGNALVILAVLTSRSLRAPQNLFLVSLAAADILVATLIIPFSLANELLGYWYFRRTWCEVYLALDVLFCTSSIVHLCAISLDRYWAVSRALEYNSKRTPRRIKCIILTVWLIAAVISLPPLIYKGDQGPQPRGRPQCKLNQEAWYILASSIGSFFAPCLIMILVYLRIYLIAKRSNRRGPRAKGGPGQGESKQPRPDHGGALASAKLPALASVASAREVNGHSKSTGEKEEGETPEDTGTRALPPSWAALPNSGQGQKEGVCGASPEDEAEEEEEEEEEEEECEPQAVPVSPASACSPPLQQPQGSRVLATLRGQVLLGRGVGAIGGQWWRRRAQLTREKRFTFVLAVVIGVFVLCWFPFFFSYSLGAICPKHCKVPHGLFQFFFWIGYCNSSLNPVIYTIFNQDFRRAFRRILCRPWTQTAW
# [30] = biological target: Alpha-2C adrenergic receptor (Homo sapiens) (UniProt P18825); conditions: Compound concentration 10.0 uM
# [31] = biological target: Beta-2 adrenergic receptor (Homo sapiens) (UniProt P07550); conditions: Compound concentration 10.0 uM
# [32] = biological target: Muscarinic acetylcholine receptor M1 (Homo sapiens) (UniProt P11229); conditions: Compound concentration 10.0 uM
# [33] = biological target: Muscarinic acetylcholine receptor M2 (Homo sapiens) (UniProt P08172); conditions: Compound concentration 10.0 uM
# Muscarinic acetylcholine receptor M2 (Homo sapiens), sequence (P08172 whole entry): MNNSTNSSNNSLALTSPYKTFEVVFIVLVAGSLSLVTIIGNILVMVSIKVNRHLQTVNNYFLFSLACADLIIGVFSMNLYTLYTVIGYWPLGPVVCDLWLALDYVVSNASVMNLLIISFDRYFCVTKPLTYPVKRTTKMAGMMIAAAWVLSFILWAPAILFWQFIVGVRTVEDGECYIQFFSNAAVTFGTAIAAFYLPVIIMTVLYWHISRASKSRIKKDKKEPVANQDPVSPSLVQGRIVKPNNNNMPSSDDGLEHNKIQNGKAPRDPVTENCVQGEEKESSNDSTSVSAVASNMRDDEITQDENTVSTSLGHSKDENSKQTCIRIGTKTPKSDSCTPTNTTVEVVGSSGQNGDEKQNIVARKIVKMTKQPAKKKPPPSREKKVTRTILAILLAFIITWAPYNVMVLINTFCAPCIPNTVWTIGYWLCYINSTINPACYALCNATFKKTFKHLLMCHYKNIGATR
# [34] = biological target: Muscarinic acetylcholine receptor M3 (Homo sapiens) (UniProt P20309); conditions: Compound concentration 10.0 uM
# [35] = biological target: Muscarinic acetylcholine receptor M4 (Homo sapiens) (UniProt P08173); conditions: Compound concentration 10.0 uM
# [36] = biological target: Muscarinic acetylcholine receptor M5 (Homo sapiens) (UniProt P08912); conditions: Compound concentration 10.0 uM
# [37] = biological target: T3, GABA-A receptor; anion channel (Rattus norvegicus); conditions: Compound concentration 10.0 uM; remark: listed apart in the source
# Rattus norvegicus = species: Rattus norvegicus; conditions: Compound concentration 10.0 uM
# [38] = biological target: Alpha-1D adrenergic receptor (Homo sapiens) (UniProt P25100); conditions: Compound concentration 10.0 uM
# [39] = biological target: Sigma intracellular receptor 2 (Homo sapiens) (UniProt Q5BJF2); conditions: Compound concentration 10.0 uM
# [40] = biological target: Sigma non-opioid intracellular receptor 1 (Homo sapiens) (UniProt Q99720); conditions: Compound concentration 10.0 uM
# T1 sequence (Q01959 whole entry): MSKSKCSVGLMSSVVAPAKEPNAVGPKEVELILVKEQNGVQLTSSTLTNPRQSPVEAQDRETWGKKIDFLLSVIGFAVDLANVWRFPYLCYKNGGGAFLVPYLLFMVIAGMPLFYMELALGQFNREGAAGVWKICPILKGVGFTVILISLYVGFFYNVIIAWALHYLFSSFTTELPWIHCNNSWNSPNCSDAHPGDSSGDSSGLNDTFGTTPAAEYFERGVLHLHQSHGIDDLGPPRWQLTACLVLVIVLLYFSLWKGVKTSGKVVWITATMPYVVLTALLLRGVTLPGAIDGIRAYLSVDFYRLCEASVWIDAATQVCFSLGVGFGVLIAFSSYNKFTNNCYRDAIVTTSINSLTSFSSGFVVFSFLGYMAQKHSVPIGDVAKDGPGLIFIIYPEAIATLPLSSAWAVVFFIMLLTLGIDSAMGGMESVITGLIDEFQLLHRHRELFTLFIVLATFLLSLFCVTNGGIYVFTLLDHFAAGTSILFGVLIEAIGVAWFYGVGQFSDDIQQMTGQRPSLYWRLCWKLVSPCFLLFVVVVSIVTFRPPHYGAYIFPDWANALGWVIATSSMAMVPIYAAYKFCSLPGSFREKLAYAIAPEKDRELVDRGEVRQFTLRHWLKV
compound,measurement,setting,value
CN(C)C(=O)c1sc2nc(N3CCC(S(C)(=O)=O)CC3)cc(C(F)(F)F)c2c1N [BI-5026],Ki,[1]; read-out: Ki,4.27 µM
same,Ki,[1]; read-out: pKi (converted),4.27 µM
same,IC50,[2],> 10 µM (not active)
same,inhibition,[3],40.6%
same,inhibition,[4],6.7%
same,inhibition,[5],2.45%
same,inhibition,[6],-1.79%
same,inhibition,[7],47.5%
same,inhibition,[8],11.6%
same,inhibition,[9],10.3%
same,inhibition,[10],5.35%
same,inhibition,[11],24.2%
same,inhibition,[12],2.32%
same,inhibition,[13],1.22%
same,inhibition,[14],1.12%
same,inhibition,[15],4.15%
same,inhibition,[16],18.1%
same,inhibition,[17],1.7%
same,inhibition,[18],80.5%
same,inhibition,[19],22.4%
same,inhibition,[20],8.58%
same,inhibition,[21],9.53%
same,inhibition,[22],3.61%
same,inhibition,[23],24.5%
same,inhibition,[24],-1.35%
same,inhibition,[25],-1.1%
same,inhibition,[26],22.8%
same,inhibition,[27],-7.86%
same,inhibition,[28],13%
same,inhibition,[29],3.36%
same,inhibition,[30],2.96%
same,inhibition,[31],6.22%
same,inhibition,[32],0.25%
same,inhibition,[33],13.4%
same,inhibition,[34],7.05%
same,inhibition,[35],3.63%
same,inhibition,[36],-6.93%
same,inhibition,[37],13.5%
same,inhibition,Rattus norvegicus,27.9%
same,inhibition,[38],7.27%
same,inhibition,[39],70.6%
same,inhibition,[40],31.5%
